Format in all cases: physicochemical
A short description of data set [1]: Hygroscopicity study by dynamic vapor sorption (DVS) analysis. To be noted: for weight gain %: 25° C.; for weight gain % / water absorbed: DVS; for water absorbed: under 95% RH at 25° C. How it is done: Hygroscopicity study is performed using Surface Measurement Systems DVS-1. The sample is placed on a microbalance in the instrument and the weight change during the sorption/desorption cycle at 25° C. is monitored. One of the sorption/desorption programs consists of a sorption scan from 0 to 95% relative humidity (RH) and a desorption scan from 95 to 10% RH. The other consists of a sorption scan from 40 to 95% RH and desorption scan from 95 to 0% RH, followed by a second sorption scan from 0 to 40% RH. Both programs are carried out at 5% RH increments and the sample is allowed to equilibrate for 360 minutes or until equilibration had been attained at each step. At the end of the DVS experiment the sample is measured by PXRD.
In the hygroscopicity study by dynamic vapor sorption (DVS) analysis, both Polymorph Form III and Polymorph Form V absorb less than 1.2 wt % under 95% relative humidity (RH) at 25° C. On the other hand, the white solid disclosed in the prior art WO2006/090224 and Polymorph Form I absorb 15 wt % or 14 wt % of water under 95% RH at 25° C.

Data set [2] is described as follows: Solid-state stability study (constant temperature/humidity chamber; HPLC, PXRD). To be noted: for purity after storage: 40° C./75% RH for 6 months (rounded). How it is done: HPLC data are obtained by Waters Alliance 2695 HPLC system with 2996 PDA detector using the following conditions; • Column: Inertsil ODS-3 (3 micrometers, 4.6×150 mm), • Eluent: acetonitrile/10 mM ammonium acetate=32:68, • Detection: UV at 215 nm, • Flow rate: 1 mL/min, and • Column temperature: 40° C.
Solid-state stability study is performed using Nagano Science Constant temperature/humidity control chamber LH-20-11 M, LH-21-11 M, LTL-200D3CJ-14 or LTX-01. […] The crystalline form, thermal behavior, purity and/or weight change of the resultant sample after the exposure or irradiation are evaluated by PXRD, TG/DTA or DSC, HPLC, microbalance, respectively.

Data set [3] in a line: Thermal transformation of crystal form (variable-temperature PXRD). To be noted: for temperature at which transformation to another polymorph form begins: heating, Form I to Form II, Form III to Form IV. How it is done:
The PXRD analyses are performed using a Rigaku RINT-TTR X-ray powder diffractometer using Cu-Kalpha radiation. The samples can also be measured under the high/low temperature condition by using the attachment of the variant-temperature sample holder. The instrument is equipped with a fine focus X-ray tube. The tube voltage and amperage are set to 50 kV and 300 mA respectively. The divergence and scattering slits are set at 0.5° and the receiving slit is set at 0.15 mm. Diffracted radiation is detected by a NaI scintillation detector. A theta-two theta continuous scan at 4°/min (step size 0.02°) from 3 to 40(°) 2-theta is used. A silicon standard is analyzed to check the machine alignment. Data are collected and analyzed using-Rigaku X-ray system. Samples are prepared for analysis by placing them in an aluminum sample holder that is horizontally rotated at 60 rpm during data acquisition.
4-{[4-({[4-(2,2,2-Trifluoroethoxy)-1,2-benzisoxazol-3-yl]oxy}methyl)piperidin-1-yl]methyl}-tetrahydro-2H-pyran-4-carboxylic acid Polymorph Form I (5 mg) is placed on the temperature-variable sample holder of PXRD, and the temperature of the sample holder is raised to 120° C. and kept for 10 min., then cooled down to room temperature without nitrogen flow to the sample holder to afford Polymorph Form II of 4-{[4-({[4-(2,2,2-trifluoroethoxy)-1,2-benzisoxazol-3-yl]oxy}methyl)piperidin-1-yl]methyl}-tetrahydro-2H-pyran-4-carboxylic acid. Conversion to the Polymorph Form II is confirmed by in situ monitoring of PXRD spectrum.
4-{[4-({[4-(2,2,2-Trifluoroethoxy)-1,2-benzisoxazol-3-yl]oxy}methyl)piperidin-1-yl]methyl}-tetrahydro-2H-pyran-4-carboxylic acid Polymorph Form III begins to transform to Polymorph Form IV at around 90° C. Conversion to the Polymorph Form IV is confirmed by in situ monitoring of PXRD spectrum (variable-temperature PXRD measurement).

The mark [4] stands for this setting: 25° C./60% RH, 40° C./75% RH and/or Xenon lamp.
Setting [5] is: 40° C./75% RH for 1 month, HPLC.
Where [6] appears, read: 40° C./75% RH for 6 months, HPLC.
[7] abbreviates: storage at 40° C./75% RH for 1 month, HPLC.
[8] abbreviates: storage at 40° C./75% RH for 6 months, HPLC.

For the compound `O=C(O)C1(CN2CCC(COc3noc4cccc(OCC(F)(F)F)c34)CC2)CCOCC1` [Polymorph Form I, 4-{[4-({[4-(2,2,2-trifluoroethoxy)-1,2-benzisoxazol-3-yl]oxy}methyl)piperidin-1-yl]methyl}-tetrahydro-2H-pyran-4-carboxylic acid], the weight gain % in data set [1] (85% RH) turned out to be 0.065%; in data set [1] (90% RH) it was 0.089%; in data set [1] (95% RH), 14%. The compound further registered a water absorbed in data set [1] of 14 wt %. Moreover, in data set [2], the “solid-state stability, comparison in words” value is reported as “more stable than the white solid”. The “change of crystal form on storage” value in data set [2] (25° C./60% RH) is on record as “gradually transforms to Polymorph Form III”. Further, the “solid-state stability (in words)” value in data set [2] (setting [4]) is “stable”. Besides, the “Purity (Area %) Main peak” value amounted to 99.4 Area % in data set [2] (setting [5]) and 95.6 Area % in data set [2] (setting [6]). Besides, the purity after storage in data set [2] is recorded as 96%. Also, in data set [2] (70° C./75% RH), the “time to transformation to Polymorph Form III” value was at most 1 days. In addition, the “Assay Remaining %” value in data set [2] (setting [7]) was determined as 98%; in data set [2] (setting [8]), 87%. The “temperature at which transformation to another polymorph form begins” value in data set [3] was “around 110 °C”.
For the compound `O=C(O)C1(CN2CCC(COc3noc4cccc(OCC(F)(F)F)c34)CC2)CCOCC1` [Polymorph Form IV, 4-{[4-({[4-(2,2,2-trifluoroethoxy)-1,2-benzisoxazol-3-yl]oxy}methyl)piperidin-1-yl]methyl}-tetrahydro-2H-pyran-4-carboxylic acid], in data set [3], the “temperature up to which the form is stable” value is “up to 115 °C”.
Consider `O=C(O)C1(CN2CCC(COc3noc4cccc(OCC(F)(F)F)c34)CC2)CCOCC1` [Polymorph Form V, 4-{[4-({[4-(2,2,2-trifluoroethoxy)-1,2-benzisoxazol-3-yl]oxy}methyl)piperidin-1-yl]methyl}-tetrahydro-2H-pyran-4-carboxylic acid], for which the “hygroscopicity in comparison with the white solid of WO2006/090224” value in data set [1] is “lower hygroscopicity”. The weight gain % worked out at 0.74% in data set [1] (85% RH), 0.85% in data set [1] (90% RH) and 1.1% in data set [1] (95% RH).
As for `O=C(O)C1(CN2CCC(COc3noc4cccc(OCC(F)(F)F)c34)CC2)CCOCC1` [Polymorph Form II, 4-{[4-({[4-(2,2,2-trifluoroethoxy)-1,2-benzisoxazol-3-yl]oxy}methyl)piperidin-1-yl]methyl}-tetrahydro-2H-pyran-4-carboxylic acid], the “solid-state stability, comparison in words” value in data set [2] is reported as “more stable than the white solid”.
On to `O=C(O)C1(CN2CCC(COc3noc4cccc(OCC(F)(F)F)c34)CC2)CCOCC1` [White solid disclosed in the prior art WO2006/090224] [4-{[4-({[4-(2,2,2-trifluoroethoxy)-1,2-benzisoxazol-3-yl]oxy}methyl)piperidin-1-yl]methyl}-tetrahydro-2H-pyran-4-carboxylic acid, reference compound], for which the weight gain % in data set [1] (85% RH) was determined as 0.99%; in data set [1] (90% RH), 5.3%; in data set [1] (95% RH) it was 15%. This compound gave a water absorbed in data set [1] of 15 wt %.
What is called share remaining is what is left of the initial amount, in per cent. `O=C(O)C1(CN2CCC(COc3noc4cccc(OCC(F)(F)F)c34)CC2)CCOCC1` [Polymorph Form III, 4-{[4-({[4-(2,2,2-trifluoroethoxy)-1,2-benzisoxazol-3-yl]oxy}methyl)piperidin-1-yl]methyl}-tetrahydro-2H-pyran-4-carboxylic acid]: the “hygroscopicity in comparison with the white solid of WO2006/090224” value in data set [1] is on record as “lower hygroscopicity”. Also, the weight gain % is listed as 0.48% in data set [1] (85% RH), 0.53% in data set [1] (90% RH) and 0.60% in data set [1] (95% RH). Moreover, the “solid-state stability, comparison in words” value in data set [2] was “more excellent solid-state stability than Polymorph Form I”. The “solid-state stability (in words)” value was “stable” in data set [2] (setting [4]); “chemically and physically stable” in data set [2] (70° C./75% RH). Further, the “Purity (Area %) Main peak” value in data set [2] (setting [5]) was determined as 99.7 Area %; in data set [2] (setting [6]), 99.1 Area %. The purity after storage in data set [2] came out at 99%. In data set [2] (70° C./75% RH, after 3 weeks, HPLC), the share remaining was 100%. Besides, the “Assay Remaining %” value in data set [2] (setting [7]) is 99%; in data set [2] (setting [8]) it was 97%. Moreover, in data set [3], the “temperature at which transformation to another polymorph form begins” value is “around 90 °C”.
